Measured values published in US7994127B2, “Treatment of rett syndrome” (Massachusetts Institute of Technology, priority 2007, dated 2011).

Assays:
tPA = tPA expression (mRNA, tPA staining) during monocular deprivation; type: in vivo, mouse; conditions: mice subjected to MD and treated
Experimental: A: Effects of (1-3)IGF-1 (GPE) treatment on the expression levels of BDNF at mRNA level. […] (1-3)IGF-1 treatment is able to increase expression though not to control levels. The RNA levels were obtained with the micro-array analysis described in Tropea et al., 2006. B: Double staining for NeuN (green) and proBDNF (red) antibody. […] Anti-pro BDNF and anti-NeuN were obtained from CHEMICON and used at a concentration of 1:500. The solutions and time of incubations are the following: preincubation in 5% BSA, 0.1% triton, 10% serum, PBS. Incubation with the primary antibodies was carried out at 4 degrees for 3 days in the following solution: 2% BSA, 5% serum, 0.1% triton, PBS. After washings in PBS secondary biotinylated (for pro-BDNF) or Alexa conjugated (for NeuN) antibodies (1:200) were incubated for 2 hours in the same solution of the primary antibodies. The pro-BDNF labeling was detected by adding extravidine tritc (Sigma—1:300). C: Effects of (1-3)IGF-1 (GPE) treatment on the mRNA expression levels of tPA. […] Anti-tPA was purchased from Oxford Biomedical Research and used at a concentration of 1:500. The conditions for incubation were the following: free floating sections were pre-incubated in blocking solution: 10% serum, 0.3% triton, PBS and then left overnight in the primary antibody mix: 1% serum, 0.3% triton, PBS, anti-tPA 1:500, anti Neu-N 1:500. […]

[1] = in vivo; cited from earlier work
[2] = system: visual cortex of adult MeCP2+/− mice; test: Ocular dominance plasticity after monocular deprivation, optical imaging of intrinsic signals; type: in vivo, mouse
MeCP2−/y mice = test: Survival and disease progression (Kaplan-Meier); type: in vivo, mouse
Text: A. (1-3) IGF-1 reduces the frequency of bradycardia in MeCP2 null mice. Pooled heart rate distributions observed across mice from different treatments, in beats per minute (bpm). The Y axis depicts the percent of observations within an experimental group that exceed a given bpm value (X axis). Comparisons are between 8 week old animals (WT or KO), some of which received (1-3)IGF-1 treatment for 6 weeks (KO-T). The KO distribution (pink) was left-shifted compared to the wild-type distribution (black), indicating a significant reduction in the distribution of heart rates. […] B. (1-3)IGF-1 treatment improves locomotor function in MeCP2 null mice. Baseline nocturnal activity was measured by placing animals in cages equipped with a movement detector (infrared beam). […] “N”=number of animals per group. C. (1-3)IGF-1 treated MeCP2 KO mice have longer life expectancy than vehicle treated controls. Kaplan-Meier survival curves for MeCP2-/y mice treated with vehicle (KO, red line) or (1-3)IGF-1 (KO-T, green line). […] MeCP2-/y mice were given daily IP injections of (1-3)IGF-1 (0.01 mg/g body weight/day) every day from 2 weeks of age onward. “n” is the number of mice per experimental group. (1-3)IGF-1 treatment: For the survival measurements, the nocturnal activity analysis and the immunoblot analysis, (1-3) IGF-1 (Bachem Biosciences # H22468) was administered daily via intra-peritoneal injections (0.01 mg/g body weight, vehicle=saline, 0.01% BSA). The treatment was started at P15 and maintained throughout the course of the experiments. For intracellular physiology experiments, the mice were injected daily (0.01 mg/g body weight, vehicle=saline, 0.01% BSA) for 2 weeks, from P15 to P28-P32 when they were used for acute slice preparation. For optical imaging experiments, mice were injected with (1-3) IGF-1 (0.02 mg/g body weight, vehicle=saline, 0.01% BSA) daily from the day of the lid suture to the day of imaging. Slice physiology preparation: Coronal sections (300 μm thick) at or near sensorimotor cortex were cut in <4° C. ACSF using a Vibratome. Slices were incubated at 37° C. for 20 minutes after slicing, and at room temperature for the remainder of the experiment. Slices were transferred to a Warner chamber and recordings were taken from visually identified pyramidal neurons located in layer 5. […] Cells were visualized with an Achroplan 40× water-immersion lens with infrared-DIC optics (Zeiss) and detected with an infrared camera (Hamamatsu) projecting to a video monitor. […] Then in current clamp 10 pulses (500 ms, 40-140 pA at 10 pA increments), were applied to quantify evoked firing rates and cellular excitability. […]

For `NCC(=O)N1CCC[C@H]1C(=O)N[C@@H](CCC(=O)O)C(=O)O` [(1-3)IGF-1, glycyl-L-prolyl-L-glutamic acid], the “tPA protein expression level, tPA staining (FIG. 8D)” value (tPA) is listed as “strongly increased”, the “tPA mRNA expression (FIG. 8C)” value (tPA; vs control and deprived animals) is listed as “significantly up-regulated tPA mRNA expression relative to both control and deprived animals” and the “crossing the blood-brain barrier” value [1] is listed as “capable of crossing the blood-brain barrier”. The “maturation of cortical circuitry during ocular dominance plasticity (FIG. 9B)” value ([2]; (1-3)IGF-1 as in Example 1) was “promoted to similar degrees”, the “ocular dominance plasticity (ODI shift after MD, FIG. 3C-D)” value ([2]; female MeCP2+/− mice P60 or more, MD 4 days, 0.02 mg/g body weight IP daily during MD) was “prevented the OD plasticity” and the “life expectancy, Kaplan-Meier survival curves (FIG. 4C)” value (MeCP2−/y mice; KO-T vs vehicle treated littermates, P=0.54*10^−7, log rank test) was “significantly longer life expectancy”. For the same compound, the “increase in life expectancy” value (MeCP2−/y mice; MeCP2−/y mice treated vs MeCP2 KO littermates, 0.01 mg/g body weight/day IP from 2 weeks of age) was roughly 50%, the 0.5 probability survival (MeCP2−/y mice; MeCP2−/y mice treated, untreated KO ~60 days) was 90 days and the “age at which symptoms develop” value (MeCP2−/y mice; treated MeCP2 knockout mice vs controls) was “at the same age as controls”.
